Data published in US20240269197A1, “INSULIN-SENSITIZING AGENT AND BUTYRATE-PRODUCING BACTERIUM” (priority 2021, published 2024).
Where a name gives a salt, the structure may show the parent alone.

Tested on: subjects aged 18-65 years with a HOMA(-IR) score between 2.5 and 3.5 (insulin resistance)
Assay: Reduction in HOMA-IR after 28 days of (non-)butyrate-producing bacteria with or without (non-)insulin-sensitizing agents (Experimental Example 1)
Type: in vivo, human
Design: key: Non-measurable: the first rank describes the lowest effect; Very low: very low; Low: low; Low/medium: low/medium; Medium: medium; High: high; Very high: the last rank describes the highest effect
Conditions: supplement alone, bacterium placebo
Description: The term ‘insulin resistance’ is well known by the skilled person. Within this disclosure, the term encompasses all conditions diagnosed as ‘insulin resistance’ by an (authorized) medical practitioner. The term ‘insulin resistance’ as used herein preferably refers to peripheral insulin resistance and/or hepatic insulin resistance. Insulin resistance may be diagnosed, for example, by the gold standard that is the “hyperinsulinemic euglycemic clamp” (DeFronzo R A, Tobin J D, Andres R, Am J Physiol. 1979 September; 237(3): E214-23). This method measures the amount of glucose necessary to compensate for an increased insulin level without causing hypoglycemia. The procedure may take two hours and typically involves the following steps: Through a peripheral vein, insulin is infused at 10-120 mU per m^2 per minute. In order to compensate for the insulin infusion, glucose 20% is infused to maintain blood sugar levels between 5 and 5.5 mmol/L. The rate of glucose infusion is determined by checking the blood sugar levels every five to ten minutes (Muniyappa R, Lee S, Chen H, Quon M J, January 2008, American Journal of Physiology. Endocrinology and Metabolism. 294 (1): E15-26). […] The homeostatic model assessment for insulin resistance (HOMA or HOMA-IR) is an alternative method used to determine and quantify insulin resistance in a fasting steady-state condition, and correlates reasonably with the golden standard (See e.g., Matthews D R, Hosker J P, Rudenski A S, Naylor B A, Treacher D F, Turner R C (1985). Diabetologia. 28 (7): 412-9. Doi:10.1007/BF00280883. PMID 3899825; and/or A. S. Rudenski; D. R. Matthews; J. C. Levy; R. C. Turner (1991) Metabolism. 40 (9): 908-917). […] The HOMA(-IR) value can be calculated by the following equation: […]
Mixed male/female subjects aged 18-65 years with a HOMA(-IR) score between 2.5 and 3.5, thus indicating insulin resistance, are included in the study. The HOMA-IR can be determined as described herein elsewhere. The HOMA(-IR) is measured at baseline and after 28 days. […]

Compound: CN(C)C(=N)NC(=N)N [Metformin, 1,1-dimethylbiguanide hydrochloride, reference compound]
- reduction in HOMA-IR value: Low/medium

Compound: OC[C@@H](O)[C@@H](O)[C@H](O)[C@@H](O)CO [Sorbitol, D-glucitol]
- reduction in HOMA-IR value: Low/medium

Compound: chromium(III) picolinate
- reduction in HOMA-IR value: Very low
